This note sets out measurements from patent US10428081B2, “EGFR inhibitor, preparation method and use thereof” (Shanghai Hansoh Biomedical Co., Ltd., priority 2014, dated 2019).

One series in a line: PK analysis in rats. Format: in vivo, Sprague Dawley (SD) rats. The settings on record: SD rats, single intragastric administration, 5 mg/10 ml/kg; for AUC(0-t): read-out: AUC0-8; for MRT inf: read-out: MRT0-∞.
The next series is described as follows: in vivo. Particulars: beagle, dog, po, 2 mg/kg. The protocol:
1. 1.0 ml of intravenous blood was collected and placed in a Heparin test tube. The blood was centrifuged at RT 6000 rpm for 5 minutes to isolate the plasma, which was stored at −80° C.
2. 160 μL of acetonitrile were added to 40 μL of plasma sample for precipitation, and then the mixture was centrifuged at 3500 rpm for 5 minutes.
3. 100 μL of treated solution was taken, and the concentration of the test compound was analyzed by LC/MS/MS. The LC/MS/MS analytical instrument was AB Sciex API 4000.
Liquid Chromatography: • Condition of Liquid chromatography: Shimadzu LC-20AD pump • Chromatographic column: phenomenex Gemiu 5 μm C18 50×4.6 mm • Mobile phase: Solution A is 0.1% formic acid aqueous solution, and Solution B is acetonitrile • Flow rate: 0.8 mL/min • Elution time: 0-3.5 minutes, the eluent used was as follows: […]

Another series concerns NCI-H1975 cells. In words: Inhibition of NCI-H1975 cell proliferation (CellTiter-Glo). Particulars: for IC50: Homo sapiens, NCI-H1975, 72 h, NCI-H1975 cell proliferation, 72 hours, CellTiter-Glo, read-out: EGFR IC50 (nM) H1975; for Selectivity of wild-type/mutant-type: ratio A431 IC50 / H1975 IC50, cells. Format: cell-based. Background: Cellular ATP, detected with luciferase, serves as a proxy for viable cell number.

In a further series the test system is A431 cells. Kind of series: Inhibition of A431 cell proliferation (CellTiter-Glo). Format: cell-based. The settings on record: Homo sapiens, A-431, 72 h, read-out: EGFR IC50 (nM) A431. The essentials: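 Viability read as CellTiter-Glo luminescence; IC50 by curve fitting of inhibition rates.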
The target of series [1] is exon 20 T790M mutant-type EGFR enzyme (Homo sapiens, UniProt P00533, T790M). In words: Enzymologic experiment of T790M mutant-type EGFR (TR-FRET). Format: biochemical. The settings on record: for IC50: T790M EGFR enzyme, TR-FRET, ATP 1 to 10 uM; for Selectivity of wild-type/mutant-type: ratio WT IC50 / T790M IC50, enzyme. The essentials:
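Compound dilutions preincubated 10 min at room temperature; reaction ended with EDTA, then labeled antibody added for 1 h at room temperature. Inhibition rates derived from TR-FRET fluorescence signal, and IC50 obtained by curve fitting across concentrations.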
On the technique in general: TR-FRET usually uses a lanthanide donor and a delayed reading to cut background.

Another series deals with wild-type EGFR enzyme (Homo sapiens, UniProt P00533). In words: Enzymologic experiment of wild-type (WT) EGFR (TR-FRET). Format: biochemical. The settings on record: ATP 0.1 to 5 uM. The method, boiled down: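 Wild-type EGFR (0.1 to 1 nM final) preincubated with serially diluted compound for 10 minutes at room temperature; reaction stopped with EDTA, then labelled antibody added for 1 hour at room temperature. TR-FRET signal converted to inhibition rates; IC50 from curve fitting across concentrations.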

The mark [2] stands for this setting: Sprague-Dawley, rat, po, 5 mg/kg, plasma.

exon 20 T790M mutant-type EGFR enzyme, sequence (P00533 25-1210 T790M): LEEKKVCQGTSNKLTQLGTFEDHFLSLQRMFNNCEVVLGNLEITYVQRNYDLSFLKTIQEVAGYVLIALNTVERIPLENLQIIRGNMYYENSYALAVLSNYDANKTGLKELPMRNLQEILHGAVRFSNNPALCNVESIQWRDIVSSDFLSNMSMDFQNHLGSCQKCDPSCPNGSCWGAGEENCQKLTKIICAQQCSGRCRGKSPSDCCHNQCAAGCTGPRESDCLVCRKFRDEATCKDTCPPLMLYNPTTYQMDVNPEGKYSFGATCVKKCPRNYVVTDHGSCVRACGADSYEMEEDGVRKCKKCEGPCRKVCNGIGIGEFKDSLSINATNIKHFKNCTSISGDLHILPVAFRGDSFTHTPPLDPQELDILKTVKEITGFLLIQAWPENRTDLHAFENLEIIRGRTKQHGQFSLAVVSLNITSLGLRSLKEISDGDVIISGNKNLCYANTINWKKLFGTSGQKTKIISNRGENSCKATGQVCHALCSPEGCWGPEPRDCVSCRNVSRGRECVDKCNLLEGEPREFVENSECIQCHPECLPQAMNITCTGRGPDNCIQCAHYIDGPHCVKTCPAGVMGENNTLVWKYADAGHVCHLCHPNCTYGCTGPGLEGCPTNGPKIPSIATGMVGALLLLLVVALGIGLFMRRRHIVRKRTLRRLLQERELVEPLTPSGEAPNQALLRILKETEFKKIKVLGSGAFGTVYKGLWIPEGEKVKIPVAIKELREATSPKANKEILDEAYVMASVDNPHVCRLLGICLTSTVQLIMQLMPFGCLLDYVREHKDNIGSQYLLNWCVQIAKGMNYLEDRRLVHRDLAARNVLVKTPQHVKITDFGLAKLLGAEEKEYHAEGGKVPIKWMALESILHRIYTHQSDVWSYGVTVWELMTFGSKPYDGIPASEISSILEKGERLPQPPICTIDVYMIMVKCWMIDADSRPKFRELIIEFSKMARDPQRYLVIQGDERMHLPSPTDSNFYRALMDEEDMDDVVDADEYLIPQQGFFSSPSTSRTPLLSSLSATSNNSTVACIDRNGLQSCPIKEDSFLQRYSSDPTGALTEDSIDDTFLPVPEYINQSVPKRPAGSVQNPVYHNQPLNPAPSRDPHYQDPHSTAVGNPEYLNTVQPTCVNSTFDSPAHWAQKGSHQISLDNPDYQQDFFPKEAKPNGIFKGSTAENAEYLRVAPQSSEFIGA
wild-type EGFR enzyme, sequence (P00533 25-1210): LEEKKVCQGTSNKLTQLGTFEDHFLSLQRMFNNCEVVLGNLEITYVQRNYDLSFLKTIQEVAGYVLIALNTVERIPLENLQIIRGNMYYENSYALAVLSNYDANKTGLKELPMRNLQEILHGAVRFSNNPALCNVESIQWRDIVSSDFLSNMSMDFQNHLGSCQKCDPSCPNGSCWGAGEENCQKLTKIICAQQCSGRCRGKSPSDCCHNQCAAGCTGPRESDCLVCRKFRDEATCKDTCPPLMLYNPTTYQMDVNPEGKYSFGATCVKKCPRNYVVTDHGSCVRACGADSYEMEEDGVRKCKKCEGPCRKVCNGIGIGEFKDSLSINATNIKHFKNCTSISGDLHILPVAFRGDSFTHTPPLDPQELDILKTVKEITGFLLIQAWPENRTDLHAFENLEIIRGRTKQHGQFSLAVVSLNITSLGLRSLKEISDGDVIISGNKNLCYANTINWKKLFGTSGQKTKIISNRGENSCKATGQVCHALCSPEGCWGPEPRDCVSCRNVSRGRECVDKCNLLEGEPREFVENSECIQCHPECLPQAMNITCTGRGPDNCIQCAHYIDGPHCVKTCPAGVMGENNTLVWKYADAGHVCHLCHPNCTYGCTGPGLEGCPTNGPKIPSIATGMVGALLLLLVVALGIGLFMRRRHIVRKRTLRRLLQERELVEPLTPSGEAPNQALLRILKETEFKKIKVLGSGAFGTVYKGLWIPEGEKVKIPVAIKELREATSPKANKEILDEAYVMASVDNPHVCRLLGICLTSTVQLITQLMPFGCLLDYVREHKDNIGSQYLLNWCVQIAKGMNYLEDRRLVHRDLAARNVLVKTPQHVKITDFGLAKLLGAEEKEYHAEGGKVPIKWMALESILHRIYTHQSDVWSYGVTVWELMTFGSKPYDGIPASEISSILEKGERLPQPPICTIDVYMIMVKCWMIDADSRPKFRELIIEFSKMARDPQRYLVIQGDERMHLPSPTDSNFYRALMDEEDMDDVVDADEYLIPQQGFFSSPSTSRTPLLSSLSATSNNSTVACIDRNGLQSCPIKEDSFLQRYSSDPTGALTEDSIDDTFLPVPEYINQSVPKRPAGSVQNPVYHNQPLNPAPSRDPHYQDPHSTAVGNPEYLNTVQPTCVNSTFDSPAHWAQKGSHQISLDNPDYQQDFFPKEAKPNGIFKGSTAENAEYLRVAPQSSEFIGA
Procedure for PK analysis in rats: 1.0 ml of intravenous blood was collected and placed in a K2EDTA test tube. The blood was centrifuged at RT 6000 rpm for 5 minutes to isolate the plasma, which was stored at −80° C.
Liquid Chromatography: • Condition of Liquid chromatography Shimadzu LC-20AD pump • Chromatographic column: phenomenex Gemiu 5 μm C18 50×4.6 mm • Mobile phase: Solution A is 0.1% formic acid aqueous solution, and Solution B is acetonitrile • Flow rate: 0.8 mL/min • Elution time: 0-3.5 minutes, the eluent used was as follows:
Condition of mass spectrometer: positive ion electrospray ionization (ESI) mode. • Analysis results of liquid chromatography and mass spectrometry:

Regarding `C=CC(=O)Nc1cc(Nc2nccc(-c3cn(C)c4ccccc34)n2)c(OC)cc1N(C)CCN(C)C` [AZD-9291, reference compound], the “t1/2” value in the series “PK analysis in rats” (plasma) was found to be 3.8 h. In the series “PK analysis in rats” (setting [2]), the AUC(0-inf) – broadly, total exposure, with the tail of the curve extrapolated – is 283 ng·h/mL; the highest concentration (Cmax) (as a rule, the maximum level reached in the sampled fluid or tissue) is 58.3 ng/mL; the time of peak concentration (Tmax) (as a rule, the time at which the peak concentration occurs) is 2 h; the AUC(0-t) was found to be 278 ng·h/mL. Also, the MRT inf in “PK analysis in rats” (setting [2]) is 3.9 h. In addition, in the series “in vivo”, the peak level (Cmax) was 81.4 ng/mL; the MRT inf came out at 9 h; the Tmax came to 1 h; the half-life – broadly, the time needed for the level to fall by half in the phase considered – was 5.4 h.

Turning to `C=CC(=O)Nc1cc(Nc2nccc(-c3cn(C4CC4)c4ccccc34)n2)c(OC)cc1N(C)CCN(C)C` [Example 26, N-(5-((4-(1-cyclopropyl-1H-indol-3-yl)pyrimidin-2-yl)amino)-2-((2-(dimethylamino)ethyl)(methyl)amino)-4-methoxyphenyl)acrylamide], in the series on NCI-H1975 cells, the IC50 (commonly the concentration needed to halve the response being measured) came out at 2.44 nM and the Selectivity of wild-type/mutant-type is listed as 208.7. The IC50 in the series on A431 cells is 509 nM. For the same compound, the “metabolites in the plasma of rat” value in “PK analysis in rats” is “only one metabolite”. In “PK analysis in rats” (setting [2]), the total exposure AUC(0-inf) came to 268 ng·h/mL, the concentration peaked (Cmax) at 58.4 ng/mL, the Tmax was determined as 0.5 h and the half-life was 2.3 h. Moreover, in “PK analysis in rats” (setting [2]), the AUC(0-t) came to 235 ng·h/mL and the MRT inf was 3.9 h. In the series “in vivo”, this compound had an area under the curve AUC(0-inf) of 5150 ng·h/mL, an AUC(0-t) of 4580 ng·h/mL, a Cmax of 528 ng/mL and an MRT inf of 9.2 h. Moreover, in the series “in vivo”, the time of peak concentration (Tmax) turned out to be 1 h and the half-life is 7 h. Besides, in series [1], the half-maximal inhibitory concentration (IC50) was 0.49 nM and the Selectivity of wild-type/mutant-type is listed as 3.9. Moreover, at wild-type EGFR enzyme, half-maximal inhibition (IC50) required 1.89 nM.

For `C=CC(=O)Nc1cc(Nc2nccc(-c3cn(C4CC4)c4ccccc34)n2)c(OC)cc1N(C)CCNC` [Metabolite of Example 26], in the series “PK analysis in rats” (setting [2]), the concentration peaked (Cmax) at 16.4 ng/mL, the Tmax worked out at 0.5 h and the AUC(0-t) is 77.4 ng·h/mL. In “in vivo”, the AUC(0-t) stood at 2060 ng·h/mL, the Cmax was 126 ng/mL and the Tmax worked out at 6 h.

On to `C=CC(=O)Nc1cc(Nc2ncc(Cl)c(-c3cn(C)c4cc(OC)ccc34)n2)c(OC)cc1N(C)CCN(C)C` [Example 98, N-(5-((5-chloro-4-(6-methoxy-1-methyl-1H-indol-3-yl)pyrimidin-2-yl)amino)-2-((2-(dimethylamino)ethyl)(methyl)amino)-4-methoxyphenyl)acrylamide], for which the half-inhibitory concentration (IC50) in the series with NCI-H1975 cells was 2.92 nM; with A431 cells, 154 nM; in series [1], 0.2 nM; on wild-type EGFR enzyme it was 1 nM. The Selectivity of wild-type/mutant-type in the series on NCI-H1975 cells is 52.71; in series [1] it was 5.00.
